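Cultured in 96-well plates, cells were exposed to test compound for 48 hours across five concentrations. At the TGI there is no net growth.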
Key:
Assay in all cases: NCI anticancer screen, dose series, 48 h
HCT-15 colon = tested on: HCT-15 colon
OVCAR-4 ovarian = tested on: OVCAR-4 ovarian
SNB-75 CNS = tested on: SNB-75 CNS
OVCAR-8 ovarian = tested on: OVCAR-8 ovarian
HOP-62 NSCLC = tested on: HOP-62 NSCLC
SF-268 CNS = tested on: SF-268 CNS
CCRF-CEM leukemia = tested on: CCRF-CEM leukemia
MOLT-4 leukemia = tested on: MOLT-4 leukemia
HCC-2998 colon = tested on: HCC-2998 colon
HOP-92 NSCLC = tested on: HOP-92 NSCLC
HCT-116 colon = tested on: HCT-116 colon
SK-MEL-5 melanoma = tested on: SK-MEL-5 melanoma
ACHN renal = tested on: ACHN renal
HL-60(TB) leukemia = tested on: HL-60(TB) leukemia
UO-31 renal = tested on: UO-31 renal
SK-MEL-28 melanoma = tested on: SK-MEL-28 melanoma
COLO 205 colon = tested on: COLO 205 colon
U251 CNS = tested on: U251 CNS
A498 renal = tested on: A498 renal
DMS 273 small cell lung = tested on: DMS 273 small cell lung
RPMI-8226 leukemia = tested on: RPMI-8226 leukemia
M14 melanoma = tested on: M14 melanoma
EKVX NSCLC = tested on: EKVX NSCLC
MALME-3M melanoma = tested on: MALME-3M melanoma
DLD-1 colon = tested on: DLD-1 colon
SN12C renal = tested on: SN12C renal
KM12 colon = tested on: KM12 colon
SW-620 colon = tested on: SW-620 colon
NCI-H23 lung = tested on: NCI-H23 lung
K-562 leukemia = tested on: K-562 leukemia
SNB-19 CNS = tested on: SNB-19 CNS
LXFL 529 NSCLC = tested on: LXFL 529 NSCLC
NCI-H226 lung = tested on: NCI-H226 lung
SF-295 CNS = tested on: SF-295 CNS
OVCAR-3 ovarian = tested on: OVCAR-3 ovarian
IGROV1 ovarian = tested on: IGROV1 ovarian
A549 NSCLC = tested on: A549 NSCLC
786-0 renal = tested on: 786-0 renal
TK-10 renal = tested on: TK-10 renal
SK-MEL-2 melanoma = tested on: SK-MEL-2 melanoma
CAKI-1 renal = tested on: CAKI-1 renal
OVCAR-5 ovarian = tested on: OVCAR-5 ovarian
SF-539 CNS = tested on: SF-539 CNS
M19-MEL melanoma = tested on: M19-MEL melanoma
NCI-H460 lung = tested on: NCI-H460 lung
SR leukemia = tested on: SR leukemia
HOP-18 NSCLC = tested on: HOP-18 NSCLC
SK-OV-3 ovarian = tested on: SK-OV-3 ovarian
NCI-H522 lung = tested on: NCI-H522 lung
UACC-257 melanoma = tested on: UACC-257 melanoma
HT29 colon = tested on: HT29 colon
SNB-78 CNS = tested on: SNB-78 CNS
UACC-62 melanoma = tested on: UACC-62 melanoma
DMS 114 small cell lung = tested on: DMS 114 small cell lung

Measured: TGI

CCCCC1CC(c2ccc(Cl)cc2)=NO1 (centres undefined)
> 100 µM: all assays above
